The test system of one data set is p38 MAPK/MK2 pathway. Kind of data set: Immunoblot of p38 MAPK/MK2 activation after DNA-damaging drugs in U2OS cells. Type of data set: cell-based, human. The protocol: (§1) 14-3-3 pull-down assays, immunoblotting, and immunofluorescence. U2OS cells were lysed in lysis buffer: 50 mM Tris/HCl, pH7.8, 150 mM NaCl, 1.0% NP-40, 5 mM EDTA, 2 mM DTT, 8 μg/ml pepstatin, 8 μg/ml aprotinin, 8 μg/ml leupeptin, 2 mM Na3VO4, 10 mM NaF, 1 μM microcystin for twenty minutes at 4° C. Clarified lysates (0.5-2 mg protein) were incubated with 20 μL glutathione beads or amylose beads containing 10-20 μg 14-3-3-GST or 14-3-3-MBP, respectively, for 120 minutes at 4° C. Following washing, lysates and bead-bound proteins were analysed by SDS-PAGE, followed by transfer to PVDF membranes and immunoblotted with the indicated antibodies. For immunofluorescence experiments, U2OS cells were seeded onto 18 mm^2 coverslips, irradiated or mock-treated, fixed, extracted, and immunostained as described previously (Clapperton et al., Nat. Struct. Mol. Biol., 11:512-518, 2004).
(A western blot detects proteins with antibodies after separation by electrophoresis.)

Another data set concerns the target Chk2 (Homo sapiens, UniProt O96017). The note with it: Chk1 versus Chk2; cited from earlier work.
The test system of data set [1] is Cdc25C Ser-216 phosphorylation. To be noted: Chk1-depleted cells, low doses of UCN-01 (~300 nM); cited from earlier work.
Data set [2] concerns the target T1, MAPKAP kinase-2 (Homo sapiens, UniProt P49137). Briefly: Phosphorylation of hsp-27 on Ser-82 after heat shock in U2OS cells (immunoblot). The class given is cell-based. On the set-up: endogenous in cells; host or cells: U2OS cells. The note with it: control luciferase shRNA U2OS cells, 42° C. for two hours, 250 nM UCN-01. On the procedure:
as §1
Activation of MK2 by cisplatin, camptothecin, and doxorubicin is strikingly similar to the activation profile reported for Chk1. […] U2OS cells depleted of Chk1 using siRNA were exposed to cisplatin and doxorubicin, and analyzed for activation of MK2. […] The IC50 value we measured for Chk1 is in good agreement with previously published data. […]

For the next data set, the system named is U2OS cells. Briefly: FACS cell cycle analysis (PI, phospho-histone H3) in U2OS cells. Type of data set: cell-based, human. The note with it: untreated U2OS cells blocked in mitosis with nocodazole (100 nM, eighteen hours). On the procedure: Asynchronous MAPKAP kinase-2 or luciferase shRNA knockdown cells were mock treated or exposed to doxorubicin for thirty hours, and cell cycle progression was monitored by FACS. In one set of experiments, the spindle poison nocodazole was added to the media three hours after addition of doxorubicin, to cause any cells progressing through the cell cycle to arrest in mitosis. DNA content was monitored by PI staining; phospho-histone-H3 staining was used as an indicator of mitotic entry. As shown in the left panels of FIG. 14A, treatment of control luciferase shRNA knockdown cells with doxorubicin led to the accumulation of cells with 4N DNA content, and a lack of phospho-histone-H3 staining in either the absence or presence of nocodazole. The cells expressing the luciferase shRNAs behaved identically to the untransfected doxorubicin-treated control U2OS cell population (FIG. 24B), with the prominent 4N DNA component and the absence of phospho-histone-H3 staining indicative of an intact G2/M checkpoint.
In contrast to the G2/M checkpoint response observed in doxorubicin-treated cells, treatment with the DNA intra-strand cross-linker cisplatin caused U2OS cells to predominantly accumulate in the G1 and S phases of the cell cycle over the subsequent thirty hours (FIG. 24C). RNA interference was used to investigate the role of MAPKAP kinase-2 in this process. […] Strikingly, when nocodazole was added three hours following cisplatin addition, the MAPKAP kinase-2 depleted cells accumulated in a 4N DNA containing peak with ˜42% of the cells staining strongly for phospho-histone H3. Identical results were obtained in cells treated with a second unrelated siRNA sequence against MAPKAP kinase-2.
FACS analysis. UV irradiation was performed at 254 nm (UV-C) using a Stratalinker 2400 (Stratagene). U2OS cells were fixed in 70% ethanol overnight at −20° C., permeabilized with PBS containing 0.2% Triton X-100 for twenty minutes at 4° C., blocked with 2% FBS in PBS, and incubated with 1 μg of anti-phospho-histone H3 per 10^6 cells for sixty minutes on ice. […]

For data set [3], the system named is mouse embryonic fibroblasts (MEFs). Kind of data set: Colony survival assay in p53 wild-type and p53−/− MEFs. Type of data set: cell-based. To be noted: MEFs that lacked p53; not seen in p53 wild-type MEFs. The protocol: FIGS. 29A-29B are graphs showing the results of a colony survival assay in which mouse embryonic fibroblasts (MEFs) were treated with increasing doses of doxorubicin or cisplatin for eight hours, rinsed twice with PBS and once with media, and re-plated at an initial density of 5,000 cells/10 cm^2 dish. After eleven days, the number of colonies on the plate was counted and normalized to the number of colonies formed by the same cell type in the absence of treatment with chemotherapeutic drugs. RNA interference using short hairpin RNAs was used with both the p53 wild-type MEFs and the p53^−/− MEFs to knock down the levels of MAPKAP kinase-2 (MK2 shRNA). Short hairpin RNAs against luciferase (luciferase shRNA) were used as a control. […] FIG. 29C is a series of Western blots using the indicated antibodies. These blots verify that p53 polypeptide, and the known p53-responsive gene product p21, is induced by DNA damage only in the p53 wild-type cells (lanes 2, 3, 5, and 6), but not in the p53^−/− cells (lanes 7-12). […]
The p53 tumor suppressor protein plays an important role in the cellular response to DNA damage by transcriptionally upregulating the Cdk inhibitor p21 to induce a G1 and G2 arrest. […] Cells were infected with lentiviruses delivering shRNAs against luciferase (control) or MK2 and analyzed 6 days later (FIG. 29C). […] Only minimal amounts of the p53 inducer protein p19ARF were detected. […]

Data set [4] addresses T1, MAPKAP kinase-2. Kind of data set: Kinetics of in vitro phosphorylation of MK2tides by MAPKAP kinase-2. Type of data set: biochemical. On the set-up: purchased Upstate. To be noted: peptide as substrate of MAPKAP kinase-2. From the text: To verify the peptide library screening results, individual peptides (MK2tides) containing the optimal MAPKAP kinase-2 consensus motif LQRQLSI (SEQ ID NO: 16), or mutant versions with Ala substituted at each position in the motif, were synthesized and used for kinetic analysis (FIGS. 3B and 3C). […] The rank order of importance of key residues is Arg-3>Leu-5≈Ile+1>[…]. The optimal MK2tide had neither the lowest Km nor the highest Vmax, but rather had the highest Vmax/Km ratio, consistent with the fact that the peptide library screening approach selects substrates on the basis of optimal Vmax/Km, rather than low Km or high Vmax alone. […]
(§2) The sequences of the p38 optimal peptide and the p47phox peptide were KKAZGPQGPQSPIE (SEQ ID NO: 22) and KKAZGPQSPGSPLE (SEQ ID NO: 23), respectively. For 14-3-3 pulldowns of Cdc25B following in vitro phosphorylation by p38 or MAPKAP kinase-2, 2.0 μg of Cdc25B was incubated with 10-fold excess 14-3-3-MBP and analyzed by autoradiography. […] Samples were analyzed by SDS-PAGE followed by transfer to nitrocellulose for autoradiography and immunoblotting. The rate of p38α phosphorylation of isolated peptides and full-length p47phox proteins was determined by scintillation counting using peptide concentrations of 100, 400, and 1400 μM, and protein concentrations of 1, 5, 10 and 15 μM, with time points taken at five, ten, and twenty minutes. […]

A further data set deals with p38α SAPK (Homo sapiens, UniProt Q16539). Briefly: Kinetics of in vitro substrate phosphorylation by p38α SAPK. Type of data set: biochemical. To be noted: GST-tagged full-length protein as substrate.
Sequence of p38α SAPK (Q16539 whole entry): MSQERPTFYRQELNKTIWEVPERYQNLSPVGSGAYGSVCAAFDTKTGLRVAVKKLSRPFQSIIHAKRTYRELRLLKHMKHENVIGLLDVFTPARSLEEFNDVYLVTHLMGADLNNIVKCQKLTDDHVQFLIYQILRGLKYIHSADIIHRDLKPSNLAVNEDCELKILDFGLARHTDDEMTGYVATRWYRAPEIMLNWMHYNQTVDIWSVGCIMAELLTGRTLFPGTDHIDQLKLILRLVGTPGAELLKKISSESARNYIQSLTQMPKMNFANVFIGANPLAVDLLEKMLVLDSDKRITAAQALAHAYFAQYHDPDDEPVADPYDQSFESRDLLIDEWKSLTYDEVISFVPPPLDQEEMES
Text: Wild-type and mutant versions of GST-tagged full-length p47phox protein, rather than isolated peptides, were then used as substrates for in vitro phosphorylation reactions. The wild-type full-length p47phox protein was rapidly phosphorylated by p38α SAPK (FIGS. 1C and 1D). […] Simultaneous mutation of both Ser345 and Ser348 to Ala eliminated phosphorylation of p47phox by p38 SAPK altogether.
as §2, with “autoradiography. For kinetic measurements, the reactions were terminated by the addition of an equal volume of 0.5 percent phosphoric acid, and 5 μl was spotted onto p81 paper.” for “autoradiography.”

T1 sequence (P49137 whole entry): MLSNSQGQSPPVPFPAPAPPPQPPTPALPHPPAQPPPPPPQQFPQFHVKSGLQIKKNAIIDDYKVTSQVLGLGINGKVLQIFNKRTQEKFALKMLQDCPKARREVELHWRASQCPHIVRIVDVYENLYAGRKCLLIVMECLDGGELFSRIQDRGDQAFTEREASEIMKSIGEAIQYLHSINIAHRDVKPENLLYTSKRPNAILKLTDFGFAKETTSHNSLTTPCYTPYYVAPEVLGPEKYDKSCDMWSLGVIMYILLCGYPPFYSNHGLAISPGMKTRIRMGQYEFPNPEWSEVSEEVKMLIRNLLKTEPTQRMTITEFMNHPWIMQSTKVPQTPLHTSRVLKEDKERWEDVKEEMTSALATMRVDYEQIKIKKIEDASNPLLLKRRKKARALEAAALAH
Sequence of Chk2 (O96017 whole entry, species assumed): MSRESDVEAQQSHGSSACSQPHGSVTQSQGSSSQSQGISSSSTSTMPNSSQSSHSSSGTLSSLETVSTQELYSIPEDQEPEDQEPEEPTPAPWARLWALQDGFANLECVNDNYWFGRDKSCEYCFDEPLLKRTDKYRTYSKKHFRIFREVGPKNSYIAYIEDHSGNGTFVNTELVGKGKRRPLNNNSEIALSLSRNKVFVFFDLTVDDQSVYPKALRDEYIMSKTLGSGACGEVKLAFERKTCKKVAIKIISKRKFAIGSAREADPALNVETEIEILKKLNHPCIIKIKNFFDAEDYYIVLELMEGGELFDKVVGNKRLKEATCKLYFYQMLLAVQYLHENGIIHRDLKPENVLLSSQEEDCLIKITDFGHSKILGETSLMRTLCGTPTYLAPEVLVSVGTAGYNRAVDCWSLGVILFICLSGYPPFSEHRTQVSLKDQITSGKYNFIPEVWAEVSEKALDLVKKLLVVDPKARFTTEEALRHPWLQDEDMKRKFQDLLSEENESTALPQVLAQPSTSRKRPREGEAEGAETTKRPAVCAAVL

Take `C[S+]([O-])c1ccc(-c2nc(-c3ccncc3)c(-c3ccc(F)cc3)[nH]2)cc1` (stereo not shown) [SB203580]: the “MK2 activation by DNA damaging agents” value with p38 MAPK/MK2 pathway was “completely abolished MK2 activation”.
With `CN[C@@H]1C[C@H]2O[C@@](C)([C@@H]1OC)n1c3ccccc3c3c4c(c5c6ccccc6n2c5c31)C(=O)N[C@H]4O` [UCN-01, 7-hydroxystaurosporin], the “IC50 for Chk1 lower than that for Chk2” value at Chk2 was around 1000 fold. Moreover, the “phosphorylation of Cdc25C on Ser-216” value in data set [1] is on record as “lost”. Moreover, the “phosphorylation of hsp-27 on Ser-82” value on MAPKAP kinase-2 [2] is “completely abrogated”.
As for `CC[C@@]1(O)C(=O)OCc2c1cc1n(c2=O)Cc2cc3ccccc3nc2-1` [camptothecin], the “time to MK2 activation (reduction in electrophoretic mobility, pThr-344)” value with p38 MAPK/MK2 pathway (U2OS cells, 10 μM drug) is recorded as “within four hour”.
In the case of `COC(=O)Nc1nc2ccc(C(=O)c3cccs3)cc2[nH]1` [nocodazole], in the data set with U2OS cells, the “cells staining for phospho-histone H3” value is 42%.
“MK2 shRNA: lentivirally delivered short hairpin RNA against murine MAPKAP kinase-2 (SEQ ID NO: 26) (TCGATGCGTGTTGACTATGATTCAAGAGATCATAGTCAACACGCATCGTTTTTTC)”: the “sensitivity to doxorubicin and cisplatin (colony survival)” value in data set [3] is reported as “increased sensitivity”.
On to “MK2tide: peptide containing the optimal MAPKAP kinase-2 consensus motif LQRQLSI (SEQ ID NO: 16)”, for which the “Km value relative to the best MAPKAP kinase-2 peptide substrate known to date (HSP27-derived sequence)” value in the data set with MAPKAP kinase-2 [4] was “two-fold lower”.

B1: wild-type p47phox: GST-tagged full-length p47phox protein, cytosolic component of NADPH oxidase, used as p38 SAPK substrate (protein)
chain: MGDTFIRHIALLGFEKRFVPSQHYVYMFLVKWQDLSEKVVYRRFTEIYEFHKTLKEMFPIEAGAINPENRIIPHLPAPKWFDGQRAAENRQGTLTEYCSTLMSLPTKISRCPHLLDFFKVRPDDLKLPTDNQTKKPETYLMPKDGKSTATDITGPIILQTYRAIANYEKTSGSEMALSTGDVVEVVEKSESGWWFCQMKAKRGWIPASFLEPLDSPDETEDPEPNYAGEPYVAIKAYTAVEGDEVSLLEGEAVEVIHKLLDGWWVIRKDDVTGYFPSMYLQKSGQDVSQAQRQIKRGAPPRRSSIRNAHSIHQRSRKRLSQDAYRRNSVRFLQQRRRQARPGPQSPGSPLEEERQTQRSKPQPAVPPRPSADLILNRCSESTKRKLASAV
modifications: left off: a dimerising Fc or GST
notes: GST-tagged full-length p47phox protein, cytosolic component of NADPH oxidase, used as p38 SAPK substrate
What is called Km is the substrate concentration at which the rate is half of its maximum. Take B1: the “Vmax for p38 SAPK phosphorylation” value with p38α SAPK is 36.6 nmol/min/µg. In addition, the Michaelis-Menten constant (Km) in the data set with p38α SAPK (read-out: Km for p38 SAPK phosphorylation) was determined as 6 µM.

Source of the values: patent US8440610B2, “Mapkap kinase-2 as a specific target for blocking proliferation of P53-defective cells” (Massachusetts Institute of Technology, priority 2004, dated 2013).
